Experimental data from ChEMBL document CHEMBL1201862, “PubChem BioAssay data set” (2004).
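Each compound was tested at five concentrations against cells in 96-well plates for 48 hours. GI50 marks 50% less growth.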 The source made the active and inactive calls. No stated cut-off is given here; in the data, active = GI50 up to about 1.1 µM and inactive = higher.

Columns and labels:
Assay in all cases: NCI anticancer screen, dose series, 48 h
[1] = system: SK-OV-3
[2] = system: NCI-H522
[3] = system: SF-268
[4] = system: SF-295
[5] = system: MOLT-4
[6] = system: NCI-H23
[7] = system: UO-31
[8] = system: SK-MEL-5
[9] = system: PC-3
[10] = system: EKVX
[11] = system: COLO 205
[12] = system: UACC-62
[13] = system: MDA-MB-435
[14] = system: HOP-92
[15] = system: CAKI-1
[16] = system: CCRF-CEM
[17] = system: LOX IMVI
[18] = system: IGROV-1
[19] = system: OVCAR-4
[20] = system: KM12
[21] = system: A549
[22] = system: SK-MEL-28
[23] = system: MCF7
[24] = system: NCI-H460
[25] = system: M14
[26] = system: SNB-75
[27] = system: NCI/ADR-RES
[28] = system: SN12C
[29] = system: OVCAR-3
[30] = system: RPMI-8226
[31] = system: K562
[32] = system: Hs-578T
[33] = system: UACC-257
[34] = system: HT-29
[35] = system: MDA-MB-231
[36] = system: A498
[37] = system: TK-10
[38] = system: HOP-62
[39] = system: HL-60
[40] = system: SW-620
[41] = system: ACHN
[42] = system: HCT-15
[43] = system: NCI-H226
[44] = system: DU-145
[45] = system: HCT-116
[46] = system: Malme-3M
[47] = system: U-251
[48] = system: T47D
[49] = system: SNB-19
[50] = system: OVCAR-8
[51] = system: RXF 393
[52] = system: SK-MEL-2
[53] = system: MDA-N
[54] = system: SF-539
[55] = system: BT-549
[56] = system: SR
[57] = system: OVCAR-5
[58] = system: HCC 2998
[59] = system: 786-0
[60] = system: KM-20L2
[61] = system: M19-MEL
[62] = system: DLD-1
[63] = system: DMS-273
[64] = system: LXFL 529

Measured: GI50

CC(C)(C)c1cc(C(=O)/C=C/c2ccc(O)c(O)c2O)cc(C(C)(C)C)c1O
0.991 µM: [42]
inactive: [1] 3.87 µM | [3] 5.3 µM | [4] 5.41 µM | [5] 2.49 µM | [6] 4.03 µM | [7] 2.67 µM | [8] 5.6 µM | [9] 3.67 µM | [10] 4.83 µM | [11] 11.8 µM | [12] 4.54 µM | [13] 6.89 µM | [14] 5.68 µM | [15] 3.21 µM | [16] 1.73 µM | [17] 9.71 µM | [18] 6 µM | [19] 2.77 µM | [20] 2.58 µM | [21] 5.06 µM | [22] 5.01 µM | [23] 4.6 µM | [24] 1.78 µM | [25] 5.46 µM | [26] 1.95 µM | [27] 1.69 µM | [28] 2.8 µM | [29] 3.52 µM | [30] 1.59 µM | [31] 2.81 µM | [32] 3.99 µM | [33] 3.05 µM | [34] 11.7 µM | [35] 12 µM | [36] 14 µM | [37] 3.57 µM | [38] 7.08 µM | [39] 1.77 µM | [40] 2.58 µM | [41] 5.69 µM | [43] 14.1 µM | [44] 10.5 µM | [45] 2.73 µM | [46] 11.5 µM | [47] 2.79 µM | [48] 2 µM | [49] 2.56 µM | [50] 4.07 µM | [51] 2.84 µM | [52] 4.41 µM | [53] 4.38 µM | [54] 2.92 µM | [55] 7.4 µM | [56] 1.45 µM | [57] 17.5 µM | [58] 2.84 µM | [59] 4.43 µM
active: [2] 1.08 µM

Cc1ccc(C(N)=O)cc1/N=N/N(C)C
inactive: [1] > 100 µM | [2] > 100 µM | [3] > 100 µM | [4] > 100 µM | [60] > 100 µM | [6] > 100 µM | [7] > 100 µM | [8] > 100 µM | [10] > 100 µM | [11] > 100 µM | [12] > 100 µM | [14] > 100 µM | [15] > 100 µM | [17] > 100 µM | [61] > 100 µM | [18] > 100 µM | [19] > 100 µM | [20] > 100 µM | [21] > 100 µM | [22] > 100 µM | [62] > 100 µM | [24] > 100 µM | [25] > 100 µM | [28] > 100 µM | [29] > 100 µM | [33] > 100 µM | [34] > 100 µM | [37] > 100 µM | [38] > 100 µM | [40] > 100 µM | [41] > 100 µM | [63] > 100 µM | [47] > 100 µM | [49] > 100 µM | [50] > 100 µM | [52] > 100 µM | [58] > 100 µM | [59] > 100 µM | [64] > 100 µM
> 100 µM: [42]
